Assay results reported in patent publication EP4806910A1, “TRI-AGONIST COMPOUND” (priority 2023, dated 2025).
Where two headings read alike, the source gives them in different places.

Columns and labels:
Type in all cases: cell-based
GLP-1R = target: T1, GLP-1R (Homo sapiens, UniProt P43220); assay: GLP-1 activity test (cAMP, chemiluminescence)
T1 construct: expressed in transfected cells; host or cells: CHO-K1
Experimental: (§1) Upon stimulation by a specific agonist, GLP-1R activates the intracellular adenylate cyclase signaling pathway, resulting in an increase in cAMP levels and ultimately leading to insulin production and secretion. A cell line stably transfected with GLP-1R was stimulated with test compounds, thereby rapidly increasing intracellular cAMP levels. The relative luminescence units (RLU) of cells stimulated at various concentrations were measured by a chemiluminescence method, and the EC50 value of the agonist was calculated accordingly. This activity test method is currently a commonly used method for evaluating GLP-1 receptor agonist activity both domestically and internationally. A CHO-K1 cell line stably expressing GLP-1R was used. The stable cells were stimulated with agonists at different concentrations, and the relative luminescence units after stimulation at each concentration were measured to calculate the EC50 value of the agonist.

GCG-R = target: T2, GCG-R (Homo sapiens, UniProt P47871); assay: GCG activity test (cAMP, chemiluminescence)
T2 construct: expressed in transfected cells; host or cells: CHO-K1
T2 sequence (P47871 26-477, species assumed): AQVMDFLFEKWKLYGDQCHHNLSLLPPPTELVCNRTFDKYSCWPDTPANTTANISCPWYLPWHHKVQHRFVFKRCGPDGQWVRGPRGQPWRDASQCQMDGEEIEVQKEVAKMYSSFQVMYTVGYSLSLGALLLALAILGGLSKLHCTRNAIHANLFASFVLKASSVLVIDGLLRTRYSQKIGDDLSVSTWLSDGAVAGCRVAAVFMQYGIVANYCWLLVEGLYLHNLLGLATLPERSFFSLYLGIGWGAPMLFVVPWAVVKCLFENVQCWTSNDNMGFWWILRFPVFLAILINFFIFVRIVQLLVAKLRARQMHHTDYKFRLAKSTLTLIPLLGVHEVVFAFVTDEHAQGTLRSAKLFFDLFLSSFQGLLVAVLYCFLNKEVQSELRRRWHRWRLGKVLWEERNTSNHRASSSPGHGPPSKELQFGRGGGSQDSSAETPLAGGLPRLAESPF
Experimental: Upon stimulation by a specific agonist, GCG-R activates the intracellular adenylate cyclase signaling pathway, resulting in an increase in cAMP levels and ultimately leading to insulin production and secretion. A cell line stably transfected with GCG-R was stimulated with test compounds, thereby rapidly increasing intracellular cAMP levels. The relative luminescence units (RLU) of cells stimulated at various concentrations were measured by a chemiluminescence method, and the EC50 value of the agonist was calculated accordingly. This activity assay method is currently a commonly used method for evaluating GCG receptor agonist activity both domestically and internationally.
A CHO-K1 cell line stably expressing GCG-R was used. The stable cells were stimulated with agonists at different concentrations, and the relative luminescence units after stimulation at each concentration were measured to calculate the EC50 value of the agonist.

GIPR = target: T3, GIPR (Homo sapiens, UniProt P48546); assay: GIP activity test (cAMP, chemiluminescence)
T3 construct: expressed in transfected cells; host or cells: CHO-K1
T3 sequence (P48546 22-466): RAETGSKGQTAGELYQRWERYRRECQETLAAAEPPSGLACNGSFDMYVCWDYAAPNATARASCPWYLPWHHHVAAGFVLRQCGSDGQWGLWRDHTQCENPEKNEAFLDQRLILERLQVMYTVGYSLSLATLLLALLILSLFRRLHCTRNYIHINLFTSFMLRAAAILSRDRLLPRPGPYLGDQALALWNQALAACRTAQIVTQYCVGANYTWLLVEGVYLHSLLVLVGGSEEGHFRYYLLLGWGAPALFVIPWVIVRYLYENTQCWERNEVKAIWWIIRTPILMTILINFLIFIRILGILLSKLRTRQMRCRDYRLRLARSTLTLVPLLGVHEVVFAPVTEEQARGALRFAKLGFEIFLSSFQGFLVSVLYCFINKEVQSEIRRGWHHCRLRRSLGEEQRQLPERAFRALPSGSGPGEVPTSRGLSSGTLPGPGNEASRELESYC
Experimental: as §1, with “agonist, GIPR” for “agonist, GLP-1R”, “with GIPR” for “with GLP-1R”, “activity assay” for “activity test”, “evaluating GIP” for “evaluating GLP-1”, “expressing GIPR” for “expressing GLP-1R”

T1 sequence (P43220 24-463, species assumed): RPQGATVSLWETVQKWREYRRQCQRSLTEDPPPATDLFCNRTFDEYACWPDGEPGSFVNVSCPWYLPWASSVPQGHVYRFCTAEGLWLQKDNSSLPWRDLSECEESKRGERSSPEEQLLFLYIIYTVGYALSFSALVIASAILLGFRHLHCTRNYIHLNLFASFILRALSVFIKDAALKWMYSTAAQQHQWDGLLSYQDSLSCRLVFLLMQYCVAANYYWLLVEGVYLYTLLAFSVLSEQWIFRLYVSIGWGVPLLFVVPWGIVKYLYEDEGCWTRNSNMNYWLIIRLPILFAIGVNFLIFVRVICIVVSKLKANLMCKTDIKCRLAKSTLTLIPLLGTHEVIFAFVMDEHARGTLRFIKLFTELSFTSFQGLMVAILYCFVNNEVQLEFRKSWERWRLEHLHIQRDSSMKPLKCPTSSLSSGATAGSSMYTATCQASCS

Row | Compound | EC50 (GLP-1R; CHO-K1 cell line stably expressing GLP-1R, cAMP, relative luminescence units, read-out: GLP-1 [EC50(pmol)]) [nM] | EC50 (GCG-R; CHO-K1 cell line stably expressing GCG-R, cAMP, relative luminescence units, read-out: GCG [EC50(pmol)]) [nM] | EC50 (GIPR; CHO-K1 cell line stably expressing GIPR, cAMP, relative luminescence units, read-out: GIP [EC50(pmol)]) [nM] | EC50 (GLP-1R) [nM] | EC50 (GCG-R) [nM] | EC50 (GIPR) [nM]
1 | CC[C@H](C)[C@H](NC(=O)[C@H](Cc1ccccc1)NC(=O)[C@H](C)NC(=O)C(C)(C)NC(=O)[C@H](CCC(N)=O)NC(=O)[C@H](C)NC(=O)[C@H](CCCCNC(=O)COCCOCCNC(=O)CC[C@H](NC(=O)CCCCCCCCCCCCCCCCCCC(=O)O)C(=O)O)NC(=O)[C@H](CCCCN)NC(=O)[C@H](CC(=O)O)NC(=O)[C@H](CC(C)C)NC(=O)[C@](C)(CC(C)C)NC(=O)[C@@H](NC(=O)[C@H](CO)NC(=O)[C@H](Cc1ccc(O)cc1)NC(=O)[C@H](CC(=O)O)NC(=O)[C@H](CO)NC(=O)[C@@H](NC(=O)[C@H](Cc1ccccc1)NC(=O)[C@@H](NC(=O)CNC(=O)[C@H](CCC(N)=O)NC(=O)C(C)(C)NC(=O)[C@@H](N)Cc1ccc(O)cc1)[C@@H](C)O)[C@@H](C)O)[C@@H](C)CC)C(=O)N[C@@H](CCC(=O)O)C(=O)N[C@@H](Cc1ccc(O)cc1)C(=O)N[C@@H](CC(C)C)C(=O)N[C@@H](CC(C)C)C(=O)N[C@@H](CCC(=O)O)C(=O)NCC(=O)NCC(=O)N1CCC[C@H]1C(=O)N[C@@H](CO)C(=O)N[C@@H](CO)C(=O)NCC(=O)N[C@@H](C)C(=O)N1CCC[C@H]1C(=O)N1CCC[C@H]1C(=O)N1CCC[C@H]1C(=O)N[C@@H](CO)C(N)=O [retatrutide, Retatrutide, reference compound] | 0.046 | 0.523 | 0.0342 | – | – | –
2 | CC[C@H](C)[C@H](NC(=O)[C@H](Cc1ccccc1)NC(=O)[C@H](C)NC(=O)C(C)(C)NC(=O)[C@H](CCC(N)=O)NC(=O)[C@H](C)NC(=O)[C@H](CCCCNC(=O)COCCOCCNC(=O)CCCCC[C@H](NC(=O)CCCCCCCCCCCCCCCCCCC(=O)O)C(=O)O)NC(=O)[C@H](CCCCN)NC(=O)[C@H](CC(=O)O)NC(=O)[C@H](CC(C)C)NC(=O)C(C)(CC(C)C)NC(=O)[C@@H](NC(=O)[C@H](CO)NC(=O)[C@H](Cc1ccc(O)cc1)NC(=O)[C@H](CC(=O)O)NC(=O)[C@H](CO)NC(=O)[C@@H](NC(=O)C(C)(Cc1ccccc1F)NC(=O)[C@@H](NC(=O)CNC(=O)[C@H](CCC(N)=O)NC(=O)C(C)(C)NC(=O)[C@@H](N)Cc1ccc(O)cc1)[C@@H](C)O)[C@@H](C)O)[C@@H](C)CC)C(=O)N[C@@H](CCC(=O)O)C(=O)N[C@@H](Cc1ccc(O)cc1)C(=O)N[C@@H](CC(C)C)C(=O)N[C@@H](CC(C)C)C(=O)N[C@@H](CCC(=O)O)C(=O)NCCCCC(=O)N1CCC[C@H]1C(=O)N[C@@H](CO)C(=O)N[C@@H](CO)C(=O)NCC(=O)N[C@@H](C)C(=O)N1CCC[C@H]1C(=O)N1CCC[C@H]1C(=O)N1CCC[C@H]1C(=O)N[C@@H](CO)C(N)=O (stereo partly drawn) [Compound 8] | – | – | – | 0.0524 | 0.179 | 0.0329
3 | CC[C@H](C)[C@H](NC(=O)[C@H](Cc1ccccc1)NC(=O)[C@H](C)NC(=O)C(C)(C)NC(=O)[C@H](CCC(N)=O)NC(=O)[C@H](C)NC(=O)[C@H](CCCCNC(=O)COCCOCCNC(=O)CCCC[C@H](NC(=O)CCCCCCCCCCCCCCCCCCC(=O)O)C(=O)O)NC(=O)[C@H](CCCCN)NC(=O)[C@H](CC(=O)O)NC(=O)[C@H](CC(C)C)NC(=O)C(C)(CC(C)C)NC(=O)[C@@H](NC(=O)[C@H](CO)NC(=O)[C@H](Cc1ccc(O)cc1)NC(=O)[C@H](CC(=O)O)NC(=O)[C@H](CO)NC(=O)[C@@H](NC(=O)C(C)(Cc1ccccc1F)NC(=O)[C@@H](NC(=O)CNC(=O)[C@H](CCC(N)=O)NC(=O)C(C)(C)NC(=O)[C@@H](N)Cc1ccc(O)cc1)[C@@H](C)O)[C@@H](C)O)[C@@H](C)CC)C(=O)N[C@@H](CCC(=O)O)C(=O)N[C@@H](Cc1ccc(O)cc1)C(=O)N[C@@H](CC(C)C)C(=O)N[C@@H](CC(C)C)C(=O)N[C@@H](CCC(=O)O)C(=O)NCCCCC(=O)N1CCC[C@H]1C(=O)N[C@@H](CO)C(=O)N[C@@H](CO)C(=O)NCC(=O)N[C@@H](C)C(=O)N1CCC[C@H]1C(=O)N1CCC[C@H]1C(=O)N1CCC[C@H]1C(=O)N[C@@H](CO)C(N)=O (stereo partly drawn) [Compound 7] | – | – | – | 0.0455 | 0.163 | 0.0246
4 | CC[C@H](C)[C@H](NC(=O)[C@H](Cc1ccccc1)NC(=O)[C@H](C)NC(=O)C(C)(C)NC(=O)[C@H](CCC(N)=O)NC(=O)[C@H](C)NC(=O)[C@H](CCCCNC(=O)COCCOCCNC(=O)CCCC[C@H](NC(=O)CCCCCCCCCCCCCCCCCCC(=O)O)C(=O)O)NC(=O)[C@H](CCCCN)NC(=O)[C@H](CC(=O)O)NC(=O)[C@H](CC(C)C)NC(=O)C(C)(CC(C)C)NC(=O)[C@@H](NC(=O)[C@H](CO)NC(=O)[C@H](Cc1ccc(O)cc1)NC(=O)[C@H](CC(=O)O)NC(=O)[C@H](CO)NC(=O)[C@@H](NC(=O)C(C)(Cc1ccccc1)NC(=O)[C@@H](NC(=O)CNC(=O)[C@H](CCC(N)=O)NC(=O)C(C)(C)NC(=O)[C@@H](N)Cc1ccc(O)cc1)[C@@H](C)O)[C@@H](C)O)[C@@H](C)CC)C(=O)N[C@@H](CCC(=O)O)C(=O)N[C@@H](Cc1ccc(O)cc1)C(=O)N[C@@H](CC(C)C)C(=O)N[C@@H](CC(C)C)C(=O)N[C@@H](CCC(=O)O)C(=O)NCCCCC(=O)N1CCC[C@H]1C(=O)N[C@@H](CO)C(=O)N[C@@H](CO)C(=O)NCC(=O)N[C@@H](C)C(=O)N1CCC[C@H]1C(=O)N1CCC[C@H]1C(=O)N1CCC[C@H]1C(=O)N[C@@H](CO)C(N)=O (stereo partly drawn) [Compound 3] | – | – | – | 0.0452 | 0.283 | 0.0267
5 | CC[C@H](C)[C@H](NC(=O)[C@H](Cc1ccccc1)NC(=O)[C@H](C)NC(=O)C(C)(C)NC(=O)[C@H](CCC(N)=O)NC(=O)[C@H](C)NC(=O)[C@H](CCCCNC(=O)COCCOCCOCCOCCOCCNC(=O)CC[C@H](NC(=O)CCCCCCCCCCCCCCCCCCC(=O)O)C(=O)O)NC(=O)[C@H](CCCCN)NC(=O)[C@H](CC(=O)O)NC(=O)[C@H](CC(C)C)NC(=O)C(C)(CC(C)C)NC(=O)[C@@H](NC(=O)[C@H](CO)NC(=O)[C@H](Cc1ccc(O)cc1)NC(=O)[C@H](CC(=O)O)NC(=O)[C@H](CO)NC(=O)[C@@H](NC(=O)C(C)(Cc1ccccc1F)NC(=O)[C@@H](NC(=O)CNC(=O)[C@H](CCC(N)=O)NC(=O)C(C)(C)NC(=O)[C@@H](N)Cc1ccc(O)cc1)[C@@H](C)O)[C@@H](C)O)[C@@H](C)CC)C(=O)N[C@@H](CCC(=O)O)C(=O)N[C@@H](Cc1ccc(O)cc1)C(=O)N[C@@H](CC(C)C)C(=O)N[C@@H](CC(C)C)C(=O)N[C@@H](CCC(=O)O)C(=O)NCCCCC(=O)N1CCC[C@H]1C(=O)N[C@@H](CO)C(=O)N[C@@H](CO)C(=O)NCC(=O)N[C@@H](C)C(=O)N1CCC[C@H]1C(=O)N1CCC[C@H]1C(=O)N1CCC[C@H]1C(=O)N[C@@H](CO)C(N)=O (stereo partly drawn) [Compound 12] | – | – | – | 0.0469 | 0.165 | 0.0243
6 | CC[C@H](C)[C@H](NC(=O)[C@H](Cc1ccccc1)NC(=O)[C@H](C)NC(=O)C(C)(C)NC(=O)[C@H](CCC(N)=O)NC(=O)[C@H](C)NC(=O)[C@H](CCCCNC(=O)COCCOCCNC(=O)CC[C@H](NC(=O)CCCCCCCCCCCCCCCCCCC(=O)O)C(=O)O)NC(=O)[C@H](CCCCN)NC(=O)[C@H](CC(=O)O)NC(=O)[C@H](CC(C)C)NC(=O)C(C)(CC(C)C)NC(=O)[C@@H](NC(=O)[C@H](CO)NC(=O)[C@H](Cc1ccc(O)cc1)NC(=O)[C@H](CC(=O)O)NC(=O)[C@H](CO)NC(=O)[C@@H](NC(=O)C(C)(Cc1ccccc1F)NC(=O)[C@@H](NC(=O)CNC(=O)[C@H](CCC(N)=O)NC(=O)C(C)(C)NC(=O)[C@@H](N)Cc1ccc(O)cc1)[C@@H](C)O)[C@@H](C)O)[C@@H](C)CC)C(=O)N[C@@H](CCC(=O)O)C(=O)N[C@@H](Cc1ccc(O)cc1)C(=O)N[C@@H](CC(C)C)C(=O)N[C@@H](CC(C)C)C(=O)N[C@@H](CCC(=O)O)C(=O)NCCCCC(=O)N1CCC[C@H]1C(=O)N[C@@H](CO)C(=O)N[C@@H](CO)C(=O)NCC(=O)N[C@@H](C)C(=O)N1CCC[C@H]1C(=O)N1CCC[C@H]1C(=O)N1CCC[C@H]1C(=O)N[C@@H](CO)C(N)=O (stereo partly drawn) [Compound 5] | – | – | – | 0.0434 | 0.159 | 0.0236
